Measurements as given in patent US12383569B2, “Immunomodulatory oligosaccharides for the treatment of pain” (Intrinsic Medicine, Inc., priority 2019, dated 2025).
In brackets after ≈: the same amount, converted by molar mass. Entries after “also recorded” stand apart in the source; their conditions may differ. Blank lines part the entries; values can stand above or below the molecule they belong to.

Tests used:
[1] = tested on: IL-1β mRNA in RAW 264.7 cells; experiment: IL-1β mRNA expression in LPS-stimulated macrophages (RT-PCR); assay type: cell-based, murine; conditions: LPS-activated macrophages, single oligosaccharide, 6 hours
Procedure: (§1) RAW246.7 cells were exposed to LPS either alone or in combination with either pooled human milk oligosaccharides (HMOs), or 3′-sialyllactose (3′SL) or 2′-fucosyllactose (2′FL). After 6 hours, IL-6 (A) and IL-1β (B) mRNA levels were measured by RT-PCR and are plotted as mean±standard deviation (n=8) relative the respective mRNA levels in cells that were exposed to LPS alone (**p<0.01; ***p<0.001). HMOs are a group of more than 150 different structurally distinct oligosaccharides and their composition follows a basic structural blueprint (C), containing five monosaccharide building blocks: glucose (dark gray circle), galactose (light gray circle), N-acetylglucosamine (dark gray square), fucose (gray triangle) and sialic acid (gray diamond). 3′SL contains lactose with sialic acid at the terminal end; 2′FL contains lactose with fucose at the terminal end.
(§2) Oligosaccharides Reduce Pro-Inflammatory Cytokine mRNA Expression in Stimulated Macrophages. HMOs were first isolated and purified from pooled human donor milk (pHMO) by using polymixin B affinity chromatography to remove any lipopolysaccharide (LPS) contamination. RAW 264.7 cells, a murine macrophage cell line, were then incubated with LPS (10 ng/mL) and pHMO (500 μg/mL) for 6 hours. RT-PCR was used to measure cytokine mRNA expression. […]

[2] = tested on: collagen antibody-induced arthritis (CAIA) mouse model; experiment: Collagen antibody-induced arthritis (CAIA) model; assay type: in vivo, BALB/c mice; conditions: for histology score for cartilage damage / histology score for erosion / histology score for inflammation: hind paws, day 14, scored 0 to 4
Procedure: Next, it was asked whether or not the in vitro results translate to an in vivo model. 3′ SL efficacy in a collagen antibody-induced arthritis (CAIA) model was tested in mice. In the CAIA model, arthritis is induced by systemic administration of a cocktail of monoclonal antibodies that target various regions of collagen type II, which is one of the major constituents of articular cartilage matrix proteins, followed by the administration of endotoxin (LPS) on day 3. The high uptake rate in the CAIA model and the capacity to synchronize the development of arthritis from the time of antibody injection, makes this a relatively straightforward model that is used to address questions of pathogenic mechanisms and to screen candidate therapeutic agents. 8-week old female BALB/c mice were injected with 1.5 mg of Arthrogen-CIA monoclonal antibody cocktail (Chondrex, Inc.).
Three days later, the mice were injected with 25 μg of LPS. Beginning with the time of LPS administration and followed for the next 11 consecutive days, mice were orally gavaged thrice daily with either 3′ SL (20 mg in saline) or saline alone as control. With the tester blinded to the study groups, arthritis in each limb was determined once per day. […] By adding together, the scores of all four limbs, the maximum score per mouse is 28. In addition, a caliper was placed across the ankle joint at the widest point to measure ankle thickness in both hind limbs daily. 14 days after antibody cocktail administration, mice were euthanized, and hind paws collected and processed for histology. H&E—as well as Toluidine blue-stained sections were scored from 0 to 4 for inflammation, bone erosion and cartilage depletion based on a previously validated scoring system.

[3] = tested on: IL-6 and IL-1β mRNA expression; experiment: Dose-range finding for reduction of IL-6 and IL-1β mRNA expression in stimulated macrophages; assay type: cell-based; conditions: Macrophage, dose-range finding studies
From the text: A multi-dimensional chromatography approach was used that separates pHMO first by charge and then by size. […] To exclude that the observed effect was due to impurities or contaminations from the isolation process, the results were confirmed with synthetized and commercially available 3′SL. […] Other oligosaccharides like 2′-fucosyllactose (2′FL), where the terminal monosaccharide is fucose instead of sialic acid (see FIG. 1C), had no effect, emphasizing that the anti-inflammatory effect of 3′ SL in macrophages is specific to the structure of 3′SL.

[4] = tested on: THP-1 monocytic cell line; experiment: Pro-inflammatory cytokine expression in human monocytic cell line; assay type: cell-based; conditions: human THP-1 monocytic cell line
From the text: (§3) Accordingly, the results with 3′SL translate to primary cells as well as to human macrophages.

[5] = tested on: IL-6 mRNA in RAW 264.7 cells; experiment: IL-6 mRNA expression in LPS-stimulated macrophages (RT-PCR); assay type: cell-based, murine; conditions: LPS-activated macrophages, single oligosaccharide, 6 hours
Procedure: as §1, §2

[6] = tested on: bone marrow derived macrophages; experiment: Pro-inflammatory cytokine expression in primary mouse cells; assay type: cell-based
From the text: as §3

[7] = tested on: acetic acid-induced writhing; experiment: Acetic acid-induced writhing test; assay type: in vivo; conditions: mice pretreated by oral or intravenous administration prior to acetic acid
[8] = CAIA mice, oral gavage 20 mg thrice daily from LPS trigger, vs saline
[9] = oral gavage 20 mg thrice daily, listed as 3′ SL

IC50 [3]: ~15 µg/mL (≈ 23.7 µM)
SMILES: CC(=O)N[C@H]1C([C@H](O)[C@H](O)CO)O[C@@](O[C@@H]2C(O)[C@H](O[C@@H]3C(CO)O[C@@H](O)C(O)[C@H]3O)OC(CO)[C@@H]2O)(C(=O)O)C[C@H]1O (stereo partly drawn) [3′SL, 3′-sialyllactose]
reduction of IL-1β mRNA expression [1]: most effective; also recorded: reduces | Baseline-corrected ankle thickness (paw swelling) [2, 8]: significantly reduced; also recorded: reduces | clinical index score 28 [2, 8]: significantly reduced; also recorded: reduces | histology score for cartilage damage ([2]; oral gavage 20 mg thrice daily): significantly lower | histology score for erosion ([2]; oral gavage 20 mg thrice daily): significantly lower | histology score for inflammation ([2]; oral gavage 20 mg thrice daily): significantly lower | histology score for cartilage damage [2, 9]: significantly reduced | histology score for erosion [2, 9]: significantly reduced | histology score for inflammation [2, 9]: significantly reduced | adverse effects ([2]; throughout the 14-day study period, CAIA mice, oral gavage 20 mg thrice daily): No adverse effects | pro-inflammatory cytokine expression [4]: reduced pro-inflammatory cytokine expression | reduction of IL-6 mRNA expression [5]: most effective; also recorded: reduces | pro-inflammatory cytokine expression [6]: reduced pro-inflammatory cytokine expression

SMILES: CC(=O)N[C@H]1[C@H]([C@H](O)[C@H](O)CO)O[C@@](O[C@H]2[C@@H](O)[C@@H](CO)O[C@@H](O[C@H]3[C@H](O)[C@@H](O)C(O)O[C@@H]3CO)[C@@H]2O)(C(=O)O)C[C@@H]1O (stereo partly drawn) [Sialyllactose]
inhibition of writhing [7]: causes inhibition of writhing
